Tests used:
Assay type in all cases: cell-based
[1] = biological target: T1, F508del-CFTR-G550E.R553M.R555K.R1070W (3TS + RW) (Homo sapiens, UniProt P13569, DEL508-508/G550E/R1070W/R553M/R555K); assay: CFTR immunoblotting in HEK-TREx cells expressing F508del-CFTR 3TS + RW; conditions: 48 hours
T1 construct: expressed in transfected cells; host or cells: T-REx HEK293
Description: (§1) The human CFTR expressing HEK cell pools with the mutations described below were generated by integrase-mediated homologous recombination of the CFTR sequence into the T-REx HEK293 background (Thermo Fisher Scientific). This expression system allows the tetracycline-inducible expression of genes of interest from one defined insertion site. Parental T-REx-HEK293 cells were cultivated in growth medium: Dulbecco’s modified Eagle’s medium + GlutaMAX-I (#31966, Life Technologies), 10% dialyzed FBS (Gibco, #26400), penicillin (100 U/ml), streptomycin (100 μg/ml), hygromycin B (0.1 mg/ml; Life Technologies), blasticidin (5 μg/ml; Invitrogen, #R210-01), and 0.1 mM nonessential amino acid solution (Invitrogen, #11140-035). Recombinant T-REx-HEK-CFTR cells were generated by lipofectamine transfection (Life Technologies) of plasmids containing mutated versions of CFTR (RefSeq NM_000492) and then cultivated in selection medium [growth medium containing Geneticin (1 mg/ml) (Invitrogen, #10131-027) instead of hygromycin]. The plasmid constructs were synthetized by GENEART (Thermo Fisher Scientific) and designed with the WT CFTR intron 5 to 6 (880 nucleotides) to prevent leaky expression issues during the cloning process in bacteria. […]

N1303K CFTR = biological target: T2, N1303K CFTR (Homo sapiens, UniProt P13569, N1303K); assay: CFTR correction (immunoblotting), HEK-TREx, N1303K; conditions: 48 hours, IDOR-3 2 μM, IDOR-4 0.4 μM, TEZ 2 μM + ELX 0.4 μM
T2 construct: expressed in transfected cells; host or cells: T-REx HEK293
Description: as §1

R560T CFTR = biological target: T3, R560T CFTR (Homo sapiens, UniProt P13569, R560T); assay: CFTR correction (immunoblotting), HEK-TREx, R560T; conditions: 48 hours, IDOR-3 2 μM, IDOR-4 0.4 μM, TEZ 2 μM + ELX 0.4 μM
T3 construct: expressed in transfected cells; host or cells: T-REx HEK293
Description: as §1

T2 sequence (P13569 whole entry N1303K): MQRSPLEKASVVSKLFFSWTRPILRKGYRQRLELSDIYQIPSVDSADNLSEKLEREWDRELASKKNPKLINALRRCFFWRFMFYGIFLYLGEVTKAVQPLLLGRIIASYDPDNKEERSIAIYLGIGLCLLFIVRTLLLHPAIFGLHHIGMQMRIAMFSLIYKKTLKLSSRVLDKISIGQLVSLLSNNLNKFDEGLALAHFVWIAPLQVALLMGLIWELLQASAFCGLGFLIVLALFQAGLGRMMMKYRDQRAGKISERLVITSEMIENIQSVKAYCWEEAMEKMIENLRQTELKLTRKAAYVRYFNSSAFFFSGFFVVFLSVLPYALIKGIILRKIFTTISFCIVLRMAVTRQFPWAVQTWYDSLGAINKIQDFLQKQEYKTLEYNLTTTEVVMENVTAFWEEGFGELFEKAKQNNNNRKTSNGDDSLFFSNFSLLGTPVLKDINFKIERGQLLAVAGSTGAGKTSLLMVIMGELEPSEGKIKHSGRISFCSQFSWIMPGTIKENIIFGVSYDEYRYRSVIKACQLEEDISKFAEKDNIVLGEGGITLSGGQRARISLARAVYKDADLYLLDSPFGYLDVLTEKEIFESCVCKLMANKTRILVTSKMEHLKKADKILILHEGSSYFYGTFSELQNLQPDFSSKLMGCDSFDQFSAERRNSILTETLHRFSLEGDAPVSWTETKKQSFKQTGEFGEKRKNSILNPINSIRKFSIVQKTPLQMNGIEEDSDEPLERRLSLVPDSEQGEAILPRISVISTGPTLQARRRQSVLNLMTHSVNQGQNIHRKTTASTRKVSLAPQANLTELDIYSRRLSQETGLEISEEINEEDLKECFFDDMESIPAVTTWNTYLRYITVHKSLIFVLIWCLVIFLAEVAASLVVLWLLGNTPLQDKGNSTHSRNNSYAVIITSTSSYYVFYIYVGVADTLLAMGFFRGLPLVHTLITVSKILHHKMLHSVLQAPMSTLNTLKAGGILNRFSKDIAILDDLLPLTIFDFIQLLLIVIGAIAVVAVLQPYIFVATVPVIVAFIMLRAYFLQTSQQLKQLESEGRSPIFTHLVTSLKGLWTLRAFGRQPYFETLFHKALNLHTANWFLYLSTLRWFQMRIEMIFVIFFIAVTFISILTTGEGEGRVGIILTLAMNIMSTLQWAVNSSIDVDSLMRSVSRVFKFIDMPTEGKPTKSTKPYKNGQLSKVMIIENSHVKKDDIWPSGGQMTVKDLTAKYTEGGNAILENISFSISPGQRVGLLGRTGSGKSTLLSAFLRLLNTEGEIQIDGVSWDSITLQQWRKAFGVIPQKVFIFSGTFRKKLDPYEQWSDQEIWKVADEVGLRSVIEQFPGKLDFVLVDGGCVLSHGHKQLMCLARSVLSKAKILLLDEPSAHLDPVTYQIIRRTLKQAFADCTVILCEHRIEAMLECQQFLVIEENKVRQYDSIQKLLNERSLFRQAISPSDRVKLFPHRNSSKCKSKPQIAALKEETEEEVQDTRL
T3 sequence (P13569 whole entry R560T): as the sequence (P13569 whole entry N1303K) above, with R560T, K1303N counted along it
T1 sequence (P13569 with tags, fused parts or gaps DEL508-508/G550E/R553M/R555K/R1070W): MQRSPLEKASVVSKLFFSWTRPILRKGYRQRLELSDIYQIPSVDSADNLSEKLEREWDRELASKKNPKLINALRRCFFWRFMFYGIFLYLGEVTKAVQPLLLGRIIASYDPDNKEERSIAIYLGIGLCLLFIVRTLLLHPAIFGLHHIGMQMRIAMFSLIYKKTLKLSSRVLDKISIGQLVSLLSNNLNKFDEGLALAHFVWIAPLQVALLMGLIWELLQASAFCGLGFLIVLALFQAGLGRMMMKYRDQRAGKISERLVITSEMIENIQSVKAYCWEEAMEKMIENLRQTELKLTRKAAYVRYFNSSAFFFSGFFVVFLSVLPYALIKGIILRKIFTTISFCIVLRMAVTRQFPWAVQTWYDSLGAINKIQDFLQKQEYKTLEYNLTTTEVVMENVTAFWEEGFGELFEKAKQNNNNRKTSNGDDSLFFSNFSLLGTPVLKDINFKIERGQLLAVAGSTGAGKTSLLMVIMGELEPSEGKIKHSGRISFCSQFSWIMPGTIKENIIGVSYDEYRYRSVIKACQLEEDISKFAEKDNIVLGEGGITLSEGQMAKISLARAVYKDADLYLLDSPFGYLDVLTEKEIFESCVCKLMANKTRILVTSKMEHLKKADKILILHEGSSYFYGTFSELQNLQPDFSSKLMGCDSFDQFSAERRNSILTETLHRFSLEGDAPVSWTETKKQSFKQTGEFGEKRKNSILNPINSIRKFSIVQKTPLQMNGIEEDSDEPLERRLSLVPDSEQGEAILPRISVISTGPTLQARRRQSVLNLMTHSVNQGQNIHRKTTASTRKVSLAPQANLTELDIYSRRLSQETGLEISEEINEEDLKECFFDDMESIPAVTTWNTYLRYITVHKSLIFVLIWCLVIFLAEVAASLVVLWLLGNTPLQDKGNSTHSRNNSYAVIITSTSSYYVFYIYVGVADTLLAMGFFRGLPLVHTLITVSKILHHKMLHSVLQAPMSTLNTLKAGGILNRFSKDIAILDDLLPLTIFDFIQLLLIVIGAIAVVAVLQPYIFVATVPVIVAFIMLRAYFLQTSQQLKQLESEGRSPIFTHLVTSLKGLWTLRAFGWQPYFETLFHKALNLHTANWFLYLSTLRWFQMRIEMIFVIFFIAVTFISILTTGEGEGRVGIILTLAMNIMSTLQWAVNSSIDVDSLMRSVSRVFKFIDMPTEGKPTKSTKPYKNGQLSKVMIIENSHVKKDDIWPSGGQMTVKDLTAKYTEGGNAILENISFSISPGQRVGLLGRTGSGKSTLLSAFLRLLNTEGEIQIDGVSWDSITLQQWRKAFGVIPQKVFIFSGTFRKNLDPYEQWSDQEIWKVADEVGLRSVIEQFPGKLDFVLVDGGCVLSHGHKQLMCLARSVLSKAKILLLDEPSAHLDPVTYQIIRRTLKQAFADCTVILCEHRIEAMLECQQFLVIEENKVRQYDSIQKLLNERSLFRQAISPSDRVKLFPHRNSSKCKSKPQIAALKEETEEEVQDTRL

Structure (SMILES): COc1cc(CCNC(=O)C2CC(=O)N(C)C(CC(C)C)C(=O)N3CCCCC3C(=O)NC(Cc3ccccc3)COc3ccc4ncc(F)cc4c3C(=O)N2)on1 (stereo not drawn) [IDOR-3]
- effect of introduction of the RW mutation on C-band expression [1]: no additional effect
- correction of N1303K (N1303K CFTR): only minor activity
- correction of R560T (R560T CFTR): highly effective

From paper PMC11801377, “A uniquely efficacious type of CFTR corrector with complementary mode of action” (Science Advances, 2024)
